In brackets after ≈: the same amount, converted by molar mass. Where a name gives a salt, the structure may show the parent alone. Read-outs that look alike come from different tables or passages of the source.
What was measured:
[1] = tested on: Methacholine chloride-asthma; experiment: Activity on experimental asthma (in vivo test), Methacholine chloride-asthma; set-up: species or system guinea pig; conditions: Cavia porcellus, sc, read-out: Methacholine chloride-asthma Ed50
Experimental: (§1) Activity on experimental asthma (in vivo test)
(§2) A guinea pig was placed in a 11 liter glass chamber and exposed to the spasmogen by means of a nebulizer. […] Drugs were administered subcutaneously to animals 30 minutes before application of the spasmogen. […] ED50 was calculated by the method of Litchfield-Wilcoxon [J. Pharmacol. Exptl. Therap, 96, 99-113 (1949)].

[2] = tested on: isolated bronchial smooth muscle; experiment: Activity on isolated bronchial smooth muscle (in vitro test), histamine dihydrochloride as spasmogen (Anti-histamine); assay type: cell-based, guinea pig; conditions: for EC50: Cavia porcellus, read-out: Anti-histamine ED50; for Anti-histamine relative activity: relative to control E (trimetoquinol) = 1.0, ED50 ratio, smaller = more potent
Experimental: (§3) Activity on isolated bronchial smooth muscle (in vitro test)
(§4) The trachea of a guinea pig was cut spirally and the isolated bronchial preparation was suspended in Magnus bath. Tyrode's solution was filled in a 50 ml bath and kept at 37° C. Then, 10-^5 g/ml of histamine dihydrochloride or methacholine chloride was added to a bath as spasmogen. After the contraction of the trachea reached a plateau, a test substance shown in the below-showing table was added to the preparation, cumulatively. The concentration producing 50% relaxation of the contracted bronchial muscle was designated as ED50.

[3] = tested on: isolated bronchial smooth muscle; experiment: Activity on isolated bronchial smooth muscle (in vitro test), methacholine chloride as spasmogen (Anti-methacholine Chloride); assay type: cell-based, guinea pig; conditions: for EC50: Cavia porcellus, read-out: Anti-methacholine Chloride ED50; for Anti-methacholine Chloride relative activity: relative to control E (trimetoquinol) = 1.0, ED50 ratio, smaller = more potent
Experimental: as §3, §4

β1 = target: T1, β1 (Canis lupus familiaris, UniProt P79148); experiment: β1-action: heart rate response (ΔHR) in anesthetized dogs; assay type: in vivo, Mongrel dogs; conditions: intravenous
T1 construct: Mongrel dogs of either sex; from tissue; host or cells: heart of the living anesthetized mongrel dog (heart rate)
Experimental: Mongrel dogs of either sex weighing about 10 Kg were anesthetized with pentobarbital Na, 30 mg/Kg intravenously. Arterial blood pressure was measured from a cannula in the right femoral artery and the pulse pressure used to trigger a ratemeter for a record of heart rate. (β1.action). Intravenous injections were made through a cannula in a femoral vein, and ED50bpm values were obtained from the does-response (ΔHR) curves. ED50bpm vs. ED50 ratios mean its own selectivity.

Histamine-asthma = experiment: Activity on experimental asthma (in vivo test), Histamine-asthma; set-up: species or system guinea pig; conditions: Cavia porcellus, sc, read-out: Histamine-asthma ED50
Experimental: as §1, §2

β1 /β2 = experiment: Selectivity (ratio of β1/β2), ED50bpm vs. ED50 in anesthetized dogs; assay type: in vivo, Mongrel dogs
β2 = target: T2, β2 (Canis lupus familiaris, UniProt P54833); experiment: β2-action: inhibition of histamine-induced increase in bronchial resistance in anesthetized dogs; assay type: in vivo, Mongrel dogs; conditions: dog, intravenous, cumulative, 5 minutes before histamine 10 μg/Kg i.v.
T2 construct: Mongrel dogs of either sex; from tissue; host or cells: airways of the living anesthetized mongrel dog (bronchial resistance)

[4] = subcutaneous, 30 minutes before 0.01% histamine dihydrochloride spray, Litchfield-Wilcoxon
[5] = concentration producing 50% relaxation of contracted bronchial muscle, 10^-5 g/ml histamine dihydrochloride, guinea pig trachea, 37° C
[6] = concentration producing 50% relaxation of contracted bronchial muscle, 10^-5 g/ml methacholine chloride, guinea pig trachea, 37° C
[7] = subcutaneous, 30 minutes before methacholine chloride spray, Litchfield-Wilcoxon

T1 sequence (P79148 whole entry): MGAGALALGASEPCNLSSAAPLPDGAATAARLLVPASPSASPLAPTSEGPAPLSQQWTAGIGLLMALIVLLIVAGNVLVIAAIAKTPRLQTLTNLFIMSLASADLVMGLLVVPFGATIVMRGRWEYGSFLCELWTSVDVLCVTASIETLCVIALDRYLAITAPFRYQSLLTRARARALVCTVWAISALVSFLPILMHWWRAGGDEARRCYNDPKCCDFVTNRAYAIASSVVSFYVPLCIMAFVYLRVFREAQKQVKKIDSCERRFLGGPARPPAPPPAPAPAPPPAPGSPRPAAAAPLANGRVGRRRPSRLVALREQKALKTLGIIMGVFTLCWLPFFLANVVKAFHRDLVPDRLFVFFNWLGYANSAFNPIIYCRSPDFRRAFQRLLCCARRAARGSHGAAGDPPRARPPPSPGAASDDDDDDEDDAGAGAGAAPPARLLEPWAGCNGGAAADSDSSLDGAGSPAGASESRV
T2 sequence (P54833 whole entry): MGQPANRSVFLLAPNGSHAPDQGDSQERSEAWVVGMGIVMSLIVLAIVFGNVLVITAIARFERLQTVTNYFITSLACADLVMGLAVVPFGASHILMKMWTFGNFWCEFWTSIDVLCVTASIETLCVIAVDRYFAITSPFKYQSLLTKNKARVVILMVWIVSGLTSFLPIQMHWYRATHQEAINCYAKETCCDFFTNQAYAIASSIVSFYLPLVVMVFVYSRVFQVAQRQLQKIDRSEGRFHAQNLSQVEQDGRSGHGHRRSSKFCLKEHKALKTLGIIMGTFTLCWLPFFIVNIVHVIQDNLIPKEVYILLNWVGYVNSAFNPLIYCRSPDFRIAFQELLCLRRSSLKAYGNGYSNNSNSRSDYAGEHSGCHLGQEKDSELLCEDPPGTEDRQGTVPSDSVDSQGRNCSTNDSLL

| SMILES | EC50 [2, 5] [µg/mL] | EC50 [3, 6] [µg/mL] | ED50 [1] [µg/kg] | EC50 [2] [µg/mL] | Anti-histamine relative activity [2] | EC50 [3] [µg/mL] | Anti-methacholine Chloride relative activity [3] | β1-action ED50bpm (β1) [µg/kg] | ED50 (Histamine-asthma; [4]) [µg/kg] | Selectivity (ratio of β1/β2) (β1 /β2) | ED50 (Histamine-asthma) [µg/kg] | ED50 [1, 7] [µg/kg] | ED50 (β2) [µg/kg] |
| --- | --- | --- | --- | --- | --- | --- | --- | --- | --- | --- | --- | --- | --- |
| CC(Cc1ccc(O)cc1)NCC(O)c1ccc(O)c(NC=O)c1 (single isomer, unassigned) [Example 8, 3-formylamino-4-hydroxy-α-[N-(1-methyl-2-p-hydroxyphenylethyl)aminomethyl]benzyl alcohol [A] . 1/2 fumarate] |  |  | 2.6 | 0.00094 | 0.35 | 0.011 | 0.52 | 0.26 | 1.9 | 8.38 |  |  |  |
| COc1ccc(CC(C)NCC(O)c2ccc(O)c(NC=O)c2)cc1 (single isomer, unassigned) [Example 22, 3-formylamino-4-hydroxy-α-[N-(1-methyl-2-p-methoxyphenylethyl)aminomethyl]benzyl alcohol [A] . 1/2 fumarate] |  |  |  | 0.00046 | 0.17 | 0.0046 | 0.22 | 0.72 |  |  | 3.6 |  |  |
| CC(C)NCC(O)c1ccc(O)c(N)c1 (stereo not drawn) [Known compound A, 3-amino-4-hydroxy-α-isopropylaminomethylbenzyl alcohol] |  |  |  | 0.3 (≈ 1.43 µM) | 111 | 3 (≈ 14.3 µM) | 143 |  |  |  |  |  |  |
| CC(C)(C)NCC(O)c1ccc(O)c(CO)c1 (stereo not drawn) [Known compound D, 4-hydroxy-3-hydroxymethyl-α-tert-butylaminomethylbenzyl alcohol] | 0.01 (≈ 0.0418 µM) | 0.096 (≈ 0.401 µM) |  |  | 3.7 |  | 4.57 | 7.0 |  | 5.0 |  |  | 1.4 |
| COc1cc(C[C@@H]2NCCc3cc(O)c(O)cc32)cc(OC)c1OC [Known compound E, l-1-(3,4,5-trimethoxybenzyl)-6,7-dihydroxy 1,2,3,4-tetrahydroisoquinoline hydrochloride] | 0.0027 | 0.021 |  |  | 1.0 |  | 1.0 |  | 11.3 |  |  | 12.4 |  |

Continued, in another order:

| EC50 [2, 5] [µg/mL] | EC50 [3, 6] [µg/mL] | SMILES | ED50 [1] [µg/kg] | EC50 [2] [µg/mL] | Anti-histamine relative activity [2] | EC50 [3] [µg/mL] | Anti-methacholine Chloride relative activity [3] | β1-action ED50bpm (β1) [µg/kg] | ED50 (Histamine-asthma; [4]) [µg/kg] | Selectivity (ratio of β1/β2) (β1 /β2) | ED50 (Histamine-asthma) [µg/kg] | ED50 [1, 7] [µg/kg] | ED50 (β2) [µg/kg] |
| --- | --- | --- | --- | --- | --- | --- | --- | --- | --- | --- | --- | --- | --- |
| 1 | > 100 | CC(=O)Nc1cc(C(O)CNC(C)C)ccc1O.Cl (stereo not drawn) [3-acetylamino-4-hydroxy-α-(isopropylaminomethyl)benzyl alcohol hydrochloride] |  |  | 370 |  | > 4760 |  |  |  |  |  |  |
| 0.00086 | 0.0089 | CC(CCc1ccc(O)cc1)NCC(O)c1ccc(O)c(NC=O)c1 (stereo not drawn) [Example 19, 3-formylamino-4-hydroxy-α-[N-(1-methyl-3-p-hydroxyphenylpropyl)aminomethyl] benzyl alcohol . 1/2 fumarate . mono-hydrate] |  |  | 0.32 |  | 0.42 | 0.59 | 1.4 | 12 |  | 8.1 |  |
| 5 (≈ 17.7 µM) | > 100 | CCOC(=O)Nc1cc(C(O)CNC(C)C)ccc1O (stereo not drawn) [Known compound B, 3-ethoxycarbonylamino-4-hydroxy-α-isopropylaminomethylbenzyl alcohol] |  |  | 185 |  | > 4760 |  |  |  |  |  |  |
| 0.09 (≈ 0.337 µM) | > 100 | CNC(=O)Nc1cc(C(O)CNC(C)C)ccc1O (stereo not drawn) [Known compound C, 4-hydroxy-3-(N'-methylureido)-α-isopropylaminomethylbenzyl alcohol] |  |  | 3.33 |  | > 4760 |  |  |  |  |  |  |
| 0.0055 (≈ 0.026 µM) | 0.028 (≈ 0.133 µM) | CC(C)NCC(O)c1ccc(O)c(O)c1 (stereo not drawn) [Known compound F, α-(isopropylaminomethyl) protocatechuyl alcohol] |  |  | 2.04 |  | 1.33 |  | 15.7 |  |  | 11.2 |  |
